Experimental data taken from patent US8435762B2, “Chimeric ligand-gated ion channels and methods of use thereof” (Howard Hughes Medical Institute, priority 2008, dated 2013).
“Also recorded” adds a separate entry of the source. Structures can show the parent of a compound that is named as a salt. Where two headings read alike, the source gives them in different places.

Legend:
[1] = biological target: T1, α7-5HT3 Q79G (Homo sapiens, UniProt P36544, M226I/Q79G/T225I); assay: whole cell voltage clamp recordings (Iss, Ipeak); type: cell-based, human/mouse
T1 construct: expressed in transfected cells; host or cells: HEK 293 cells (ATCC CRL-1573)

[2] = biological target: T1, α7-5HT3 Q79G; assay: fluorescence membrane potential (MP) assay, HEK 293 cells; type: cell-based, human/mouse; conditions: read-out: EC50-MP; α7 Q79G, IPD 5HT3; value (s.e.m.)
[3] = biological target: T2, α7-5HT3 W77F (Homo sapiens, UniProt P36544, M226I/T225I/W77F); assay: as above; type: cell-based, human/mouse
T2 construct: expressed in transfected cells; host or cells: HEK 293 cells (ATCC CRL-1573)

[4] = biological target: T3, α7-5HT3 wt chimeric receptor (Homo sapiens, UniProt P36544, M226I/T225I); assay: whole cell voltage clamp recordings (Iss, Ipeak); type: cell-based, human/mouse
T3 construct: expressed in transfected cells; host or cells: HEK 293 cells

[5] = biological target: T3, α7-5HT3 wt chimeric receptor; assay: fluorescence membrane potential (MP) assay, HEK 293 cells; type: cell-based, human/mouse; conditions: for EC50: read-out: EC50-MP, α7 wt, IPD 5HT3, value (s.e.m.); for activity against α7-5HT3 wt (unmodified) receptor: dose response curves, MP assay
[6] = biological target: T4, α7-5HT3 Y115F (Homo sapiens, UniProt P36544, M226I/T225I/Y115F); assay: efficacy on ACh-insensitive mutant; type: cell-based, human/mouse
T4 construct: expressed in transfected cells; host or cells: not restated

[7] = biological target: T5, α7-5HT3 Y210F (Homo sapiens, UniProt P36544, M226I/T225I/Y210F); assay: efficacy on ACh-insensitive mutant; type: cell-based, human/mouse
T5 construct: expressed in transfected cells; host or cells: not restated

[8] = biological target: T6, α7-5HT3 L141F (Homo sapiens, UniProt P36544, L141F/M226I/T225I); assay: fluorescence membrane potential (MP) assay, HEK 293 cells; type: cell-based, human/mouse; conditions: for EC50: read-out: EC50-MP, α7 L141F, IPD 5HT3, value (s.e.m.)
T6 construct: expressed in transfected cells; host or cells: HEK 293 cells (ATCC CRL-1573)

[9] = biological target: T7, α7-GlyR L141F in cortical neurons (AAV, synapsin promoter) (Homo sapiens, UniProt P36544, L141F); assay: excitability of AAV-transduced cortical neurons; type: cell-based; conditions: 10 μM; current injection up to 500 pA
T7 construct: expressed in transfected cells; host or cells: HEK 293 cells (A15); cortical neurons transduced with AAV, synapsin promoter (A22)
Description: (§1) FIG. 9. Synthetic ligand-induced silencing of a cortical neuron transduced by viral gene delivery α7-GlyR L141F mutant chimeric ligand-gated ion channels. Cortical neurons were transduced with adeno-associated virus (AAV) encoding the α7-GlyR L141F mutant chimeric ligand-gated ion channel under the control of the neuron-specific synapsin promoter. A. Excitability of a transfected cortical neuron before, during, and after administration of compound 89S (10 μM). […] The neuron fires normally with <100 pA injected current before and after the compound administration. B. Excitability of a non-transduced neuron is shown for comparison. Non-transduced neurons are not affected by administration of compound 89S, even at a higher concentration (30 μM).
(§2) The synapsin promoter, which restricts gene expression to neuronal cell types, was used to drive expression of α7-GlyR L141F in an adeno-associated virus (AAV) gene delivery vector.

[10] = biological target: T8, α7-5HT3 HC L141F (R425Q R429D R433A) (Homo sapiens, UniProt P36544, L141F/M226I/T225I); assay: whole cell voltage clamp recordings (Iss, Ipeak); type: cell-based, human/mouse
T8 construct: expressed in transfected cells; host or cells: HEK 293 cells (A14); mouse layer 2/3 cortical neurons (A19)

[11] = biological target: T9, α7-GlyR L141F Y115F expressed in layer ⅔ cortical neurons (Homo sapiens, UniProt P36544, L141F/Y115F); assay: rheobase of layer ⅔ cortical neurons; type: cell-based
T9 construct: expressed in transfected cells; layer 2/3 cortical neurons (A20)
Text: (§3) FIG. 8. Chimeric α7-GlyR ligand-gated ion channel conducts chloride and greatly reduces excitability of cortical neurons in the presence of the cognate ligand. A. Current trace from voltage clamp recordings in transfected HEK 293 cells showing sustained responses of α7-GlyR and α7-GABA C mutant chimeric receptors to activation by synthetic ligands of the invention. Black line indicates time course of ligand application. […] C. Rheobase, which is the amount of current required to elicit an action potential, is not affected by expression of α7-GlyR L141F Y115F (labeled as condition: PRE). However, rheobase increases 10-fold in the presence of 10 μM compound 89S. There is no change in rheobase in untransfected neurons, even in the presence of 30 μM compound 89S. This reduction of excitability in α7-GlyR L141F Y115F expressing neurons is reversed after washout of the synthetic ligand (labeled as condition: WASH).
(§4) This was measured by the amount of current required to evoke and action potential, also termed rheobase (FIG. 8C). We found no difference in the rheobase of α7-GlyR L141F Y115F expressing neurons and untransfected cells.

[12] = biological target: T6, α7-5HT3 L141F; assay: whole cell voltage clamp recordings (Iss, Ipeak); type: cell-based, human/mouse
[13] = system: untransfected neurons; assay: rheobase of untransfected cortical neurons; type: cell-based; conditions: even at 30 μM
Text: as §3, §4

[14] = biological target: T10, α7-GABA C L141F (Homo sapiens, UniProt P36544, L141F); assay: whole cell voltage clamp recordings (Iss, Ipeak); type: cell-based; conditions: IPD GABAC
T10 construct: expressed in transfected cells; host or cells: HEK 293 cells

[15] = biological target: T11, α7-GlyR L141F Y115F (Homo sapiens, UniProt P36544, L141F/Y115F); assay: whole cell voltage clamp recordings (Iss, Ipeak); type: cell-based; conditions: IPD GlyR
T11 construct: expressed in transfected cells; layer 2/3 cortical neurons (A20)

[16] = system: non-transduced neurons; assay: excitability of non-transduced cortical neurons; type: cell-based; conditions: even at 30 μM
Description: as §1, §2

[17] = biological target: T12, α7-5HT3 HC L141F expressed in layer ⅔ cortical neurons (Homo sapiens, UniProt P36544, L141F/M226I/T225I); assay: cell attached recording of firing in layer ⅔ cortical neurons; type: cell-based, mouse; conditions: 3 μM
T12 construct: expressed in transfected cells; host or cells: HEK 293 cells (A14); mouse layer 2/3 cortical neurons (A19)
Text: FIG. 7. High conductance chimeric cationic ligand-gated ion channel activates layer ⅔ cortical neurons. A. Current trace from voltage clamp recordings in HEK 293 cells transfected with high conductance (HC) α7-5HT3 L141F receptors showing sustained response of the receptor to compound 89S. B. Cell attached extracellular recording of action currents from mouse layer ⅔ cortical neurons transfected with HC α7-5HT3 L141F. In addition to the mutation in the ligand binding domain (e.g., L141F), these receptors contain high conductance inducing mutations in the α7-5HT3 sequence: R425Q R429D R433A in SEQ ID NO: 1.
To develop a neuron activating cation channel, we further modified the α7-5HT3 channel with three previously described mutations that were reported to provide a 100-fold increase in conductance: R425Q R429D R433A.

[18] = biological target: T13, α7-GlyR L141F (Homo sapiens, UniProt P36544, L141F); assay: whole cell voltage clamp recordings (Iss, Ipeak); type: cell-based; conditions: IPD GlyR
T13 construct: expressed in transfected cells; host or cells: HEK 293 cells (A15); cortical neurons transduced with AAV, synapsin promoter (A22)

[19] = biological target: T14, α7-5HT3 Q79G Q139M (Homo sapiens, UniProt P36544, M226I/Q139M/Q79G/T225I); assay: fluorescence membrane potential (MP) assay, HEK 293 cells; type: cell-based, human/mouse
T14 construct: expressed in transfected cells

[20] = biological target: T2, α7-5HT3 W77F; assay: whole cell voltage clamp recordings (Iss, Ipeak); type: cell-based, human/mouse
[21] = read-out: EC50-Ipeak, peak current, IPD 5HT3
[22] = read-out: EC50-Iss, steady state current, IPD 5HT3
[23] = EC50-Ipeak, peak current, *complex: multiphasic dose response

T13 sequence (P36544 with tags, fused parts or gaps L141F): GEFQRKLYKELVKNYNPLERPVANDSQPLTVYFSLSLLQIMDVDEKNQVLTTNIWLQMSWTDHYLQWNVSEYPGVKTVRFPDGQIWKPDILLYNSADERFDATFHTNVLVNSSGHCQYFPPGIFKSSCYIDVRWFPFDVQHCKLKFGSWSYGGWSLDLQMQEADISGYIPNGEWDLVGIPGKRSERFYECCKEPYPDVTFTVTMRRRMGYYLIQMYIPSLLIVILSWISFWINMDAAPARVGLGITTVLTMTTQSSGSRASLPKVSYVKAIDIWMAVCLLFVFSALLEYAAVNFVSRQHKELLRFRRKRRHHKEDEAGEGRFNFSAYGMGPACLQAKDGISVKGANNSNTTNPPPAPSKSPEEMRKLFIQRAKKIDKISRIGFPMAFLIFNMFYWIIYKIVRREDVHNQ
T3 sequence (P36544 with tags, fused parts or gaps T225I/M226I): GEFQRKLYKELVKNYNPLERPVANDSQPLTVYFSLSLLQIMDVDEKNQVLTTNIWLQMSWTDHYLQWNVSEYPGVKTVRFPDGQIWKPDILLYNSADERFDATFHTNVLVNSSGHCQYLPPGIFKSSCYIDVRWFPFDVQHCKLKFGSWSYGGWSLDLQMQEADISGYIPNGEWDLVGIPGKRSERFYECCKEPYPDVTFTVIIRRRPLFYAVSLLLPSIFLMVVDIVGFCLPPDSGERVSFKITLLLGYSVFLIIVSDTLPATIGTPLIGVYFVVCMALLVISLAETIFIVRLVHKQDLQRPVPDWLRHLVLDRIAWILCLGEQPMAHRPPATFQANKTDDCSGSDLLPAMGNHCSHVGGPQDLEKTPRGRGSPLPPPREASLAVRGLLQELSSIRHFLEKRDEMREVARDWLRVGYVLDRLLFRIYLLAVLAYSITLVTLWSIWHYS
T1 sequence (P36544 with tags, fused parts or gaps Q79G/T225I/M226I): as the sequence (P36544 with tags, fused parts or gaps T225I/M226I) above, with Q57G counted along it
T9 sequence (P36544 with tags, fused parts or gaps Y115F/L141F): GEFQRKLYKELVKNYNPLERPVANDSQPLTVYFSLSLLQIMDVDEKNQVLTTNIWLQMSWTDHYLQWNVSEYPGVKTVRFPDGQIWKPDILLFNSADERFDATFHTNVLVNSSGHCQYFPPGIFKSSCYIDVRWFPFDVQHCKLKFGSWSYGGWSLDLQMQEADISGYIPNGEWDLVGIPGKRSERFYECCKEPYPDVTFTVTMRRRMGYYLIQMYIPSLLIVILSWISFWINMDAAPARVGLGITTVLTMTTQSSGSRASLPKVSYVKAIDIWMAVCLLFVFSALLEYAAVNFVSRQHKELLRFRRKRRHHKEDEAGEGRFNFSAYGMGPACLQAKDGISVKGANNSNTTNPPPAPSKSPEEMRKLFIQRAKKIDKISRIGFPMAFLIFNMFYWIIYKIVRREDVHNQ
T2 sequence (P36544 with tags, fused parts or gaps W77F/T225I/M226I): as the sequence (P36544 with tags, fused parts or gaps T225I/M226I) above, with W55F counted along it
T6 sequence (P36544 with tags, fused parts or gaps L141F/T225I/M226I): as the sequence (P36544 with tags, fused parts or gaps T225I/M226I) above, with L119F counted along it
T7 sequence (P36544 with tags, fused parts or gaps L141F): as the sequence (P36544 with tags, fused parts or gaps Y115F/L141F) above, with F93Y counted along it
T14 sequence (P36544 with tags, fused parts or gaps Q79G/Q139M/T225I/M226I): as the sequence (P36544 with tags, fused parts or gaps T225I/M226I) above, with Q57G, Q117M counted along it
T10 sequence (P36544 with tags, fused parts or gaps L141F): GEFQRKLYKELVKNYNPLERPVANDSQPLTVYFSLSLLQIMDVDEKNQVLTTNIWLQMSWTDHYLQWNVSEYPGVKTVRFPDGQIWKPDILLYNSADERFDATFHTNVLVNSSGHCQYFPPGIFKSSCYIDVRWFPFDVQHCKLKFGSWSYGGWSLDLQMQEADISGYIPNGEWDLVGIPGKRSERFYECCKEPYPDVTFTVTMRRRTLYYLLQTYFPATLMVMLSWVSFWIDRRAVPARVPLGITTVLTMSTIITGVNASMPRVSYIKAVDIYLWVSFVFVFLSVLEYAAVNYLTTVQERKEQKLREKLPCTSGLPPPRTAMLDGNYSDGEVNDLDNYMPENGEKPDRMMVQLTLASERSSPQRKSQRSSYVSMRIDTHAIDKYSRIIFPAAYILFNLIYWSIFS
T11 sequence (P36544 with tags, fused parts or gaps Y115F/L141F): as the sequence (P36544 with tags, fused parts or gaps Y115F/L141F) above
T8 sequence (P36544 with tags, fused parts or gaps L141F/T225I/M226I): as the sequence (P36544 with tags, fused parts or gaps T225I/M226I) above, with L119F, R403Q, R407D, R411A counted along it
T4 sequence (P36544 with tags, fused parts or gaps Y115F/T225I/M226I): as the sequence (P36544 with tags, fused parts or gaps T225I/M226I) above, with Y93F counted along it
T5 sequence (P36544 with tags, fused parts or gaps Y210F/T225I/M226I): as the sequence (P36544 with tags, fused parts or gaps T225I/M226I) above, with Y188F counted along it
T12 sequence (P36544 with tags, fused parts or gaps L141F/T225I/M226I): as the sequence (P36544 with tags, fused parts or gaps T225I/M226I) above, with L119F, R403Q, R407D, R411A counted along it

## CCCc1ccc(C(=O)N[C@@H]2CN3CCC2CC3)cc1 [Compound 165S, (S)-4-propyl-N-(quinuclidin-3-yl)benzamide TFA]
[1]; [21]
  EC50: 5900 nM
[1]; [22]
  EC50: 900 nM
[2]
  EC50: 1900 nM

## O=C(N[C@@H]1CN2CCC1CC2)c1ccc(-c2ccc(F)cc2)cc1 [Compound 132S, (S)-4′-fluoro-N-(quinuclidin-3-yl)biphenyl-4-carboxamide TFA]
[3]; FIG. 5 dose response curves
  selective activation of α7-5HT3 W77F over receptors with Q79G and L141F mutations: selectively activated
[3]; read-out: EC50-MP; α7 W77F, IPD 5HT3; value (s.e.m.)
  EC50: 4300 ± 500 nM

## O=C(N[C@H]1CN2CCC1CC2)c1ccc(Cl)cc1 [PNU-282987]
[4]; peak current, IPD 5HT3, read-out: EC50-Ipeak
  EC50: 800 nM
[4]; steady state current, IPD 5HT3, read-out: EC50-Iss
  EC50: 90 nM
[5]
  EC50: 60 nM
[6]
  efficacy with α7-5HT3 carrying Y115F: greatly reduced or eliminated
[7]
  efficacy with α7-5HT3 carrying Y210F: greatly reduced or eliminated

## c1ccc2c(c1)CC1C(=NN2)C2CCN1CC2 (stereo not drawn) [Compound 212]
[5]
  EC50: > 100000 nM
[8]
  EC50: 750 nM
[2]
  EC50: > 100000 nM

## COc1ccccc1C(=O)N[C@@H]1CN2CCC1CC2 [Compound 19S, (S)-2-methoxy-N-(quinuclidin-3-yl)benzamide]
[5]
  activity against α7-5HT3 wt (unmodified) receptor: did not induce activate
[8]
  EC50: 1400 nM

## COc1ccc(OC)c(C(=O)N[C@@H]2CN3CCC2CC3)c1 [Compound 89S, (S)-2,5-dimethoxy-N-(quinuclidin-3-yl)benzamide]
[5]
  activity against α7-5HT3 wt (unmodified) receptor: no activity
[9]
  excitability (silencing) of transduced neurons: rendered sensitive to silencing; also recorded: poorly excitable
[10]; read-out: EC50-Ipeak, peak current, IPD 5HT3 HC
  EC50: 2300 nM
[10]; read-out: EC50-Iss, steady state current, IPD 5HT3 HC
  EC50: 1500 nM
[11]; 10 μM
  increase of rheobase: 10 fold
[11]; washed away with drug-free buffer
  reversibility of the effect on neuronal excitability after washout: rapidly reversible; also recorded: reversed
[12]; [21]
  EC50: 3200 nM
[12]; [22]
  EC50: 700 nM
[13]
  change in rheobase in untransfected neurons: no change
[8]; FIG. 5 dose response curves
  selectivity for L141F relative to other mutant receptors: selective
[8]
  EC50: 400 ± 100 nM
[14]; EC50-Ipeak, peak current
  EC50: 8800 nM
[14]; EC50-Iss, steady state current
  EC50: 4900 nM
[15]; EC50-Ipeak, peak current
  EC50: 6900 nM
[15]; EC50-Iss, steady state current
  EC50: 5200 nM
[16]
  excitability of non-transduced neurons: unaffected; also recorded: not affected
[17]
  firing rate of neurons: sustainably increased
[18]; EC50-Iss, steady state current
  EC50: 1800 nM
[18]; peak current, *complex: multiphasic dose response
  EC50-Ipeak: *complex

## CS(=O)(=O)c1ccc(C(=O)N[C@H]2CN3CCC2CC3)cc1 [Compound 38R, (R)-4-(methylsulfonyl)-N-(quinuclidin-3-yl)benzamide TFA]
[5]; TFA
  activity against α7-5HT3 wt (unmodified) receptor: no activity; also recorded: did not induce activate
[19]; EC50MP
  fold improvement in potency (EC50), α7-5HT3 Q79G Q139M relative to α7-5HT3 Q79G: 8 fold
[19]; read-out: EC50-MP, α7 Q79G Q139M, IPD 5HT3, value (s.e.m.)
  EC50: 230 ± 70 nM

## COc1ccc(F)cc1C(=O)N[C@@H]1CN2CCC1CC2 [Compound 119S, (S)-5-fluoro-2-methoxy-N-(quinuclidin-3-yl)benzamide TFA]
[18]; [23]
  EC50: 3800 nM
[18]; EC50-Iss, steady state current
  EC50: 2500 nM

## O=C(N[C@@H]1CN2CCC1CC2)c1ccc(-c2ccccc2)cc1 [Compound 28S, (S)—N-(quinuclidin-3-yl)biphenyl-4-carboxamide TFA]
[5]
  activity against α7-5HT3 wt (unmodified) receptor: did not induce activate
[20]; [21]
  EC50: 11300 nM
[20]; [22]
  EC50: 2400 nM

## O=C(N[C@@H]1CN2CCC1CC2)c1ccc(-c2cccs2)cc1 [Compound 34S, (S)—N-(quinuclidin-3-yl)-4-(thiophen-2-yl)benzamide]
[5]
  activity against α7-5HT3 wt (unmodified) receptor: did not induce activate
[3]; α7 W77F, IPD 5HT3; value (s.e.m.); read-out: EC50-MP
  EC50: 1400 nM

## COc1ccc(Cl)cc1C(=O)N[C@@H]1CN2CCC1CC2 [Compound 118S, (S)-5-chloro-2-methoxy-N-(quinuclidin-3-yl)benzamide TFA]
[18]; [23]
  EC50: 3200 nM
[18]; EC50-Iss, steady state current
  EC50: 3000 nM

## COc1ccc(C(=O)N[C@@H]2CN3CCC2CC3)c(OC)c1 [Compound 88S, (S)-2,4-dimethoxy-N-(quinuclidin-3-yl)benzamide]
[5]
  activity against α7-5HT3 wt (unmodified) receptor: no activity
[8]
  EC50: 100 ± 100 nM
